From US9382222B2, “Benzyl sulfonamide derivatives as RORc modulators” (Genentech, Inc., priority 2012, dated 2016)
pIC50: −log10 of the molar value.

These compounds were tested against T1, RORc ligand binding domain (Homo sapiens, UniProt P51449) (assay: In Vitro RORc Ligand Binding Assay). Conditions: displacement of 25-[3H]hydroxycholesterol (6 nM), 0.6 ug/mL RORc receptor, 3 h at 25° C.
T1 construct: host or cells: E. coli
T1 sequence (P51449 269-508 limits assumed): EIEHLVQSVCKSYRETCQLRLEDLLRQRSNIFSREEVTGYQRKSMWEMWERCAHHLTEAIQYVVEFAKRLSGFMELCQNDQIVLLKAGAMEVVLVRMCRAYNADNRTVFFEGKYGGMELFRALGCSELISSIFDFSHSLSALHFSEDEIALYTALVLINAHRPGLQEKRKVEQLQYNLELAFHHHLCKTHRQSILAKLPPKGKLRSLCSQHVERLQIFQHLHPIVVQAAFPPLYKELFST
Experimental: In Vitro RORc Ligand Binding Assay This assay was used to determine a compound's potency in inhibiting activity of RORc by determining, Kiapp, IC50, or percent inhibition values. […] On day of the assay, 100 uL of 0.05% CHAPS (in deionized H2O) was added to all wells of the GFB Unifilter plate and allowed soak for 1 h. A wash buffer of 50 mM HEPES (pH 7.4), 150 mM NaCl, and 5 mM MgCl2 was prepared to wash the filter plate. To prepare an assay buffer, BSA was added to the wash buffer to reach 0.01% and DTT was added to reach 1 mM. […] The 20× compound stocks were diluted in DMSO with Assay Buffer 4-fold to reach 5× the final test concentration in 25% DMSO (10 uL compound+30 uL Assay Buffer). Solutions were mixed by aspiration several times with a pipette set on 50 uL volume. For the assay, 10 uL of 5× compound stock solutions in 25% DMSO were added to the assay plate in duplicate. For two point screening, 10 mM stock compound solutions were diluted in DMSO to obtain 200 uM (20× the high test concentration) and then diluted 10-fold further to reach 20 uM (20× the low test concentration). The 20× stocks were diluted 4-fold with Assay Buffer (10 uL compound+30 uL Assay Buffer) to reach 5× the test concentrations (50 uM and 5 uM) and 10 uL were added to two assay plates for the duplicate wells. […] Add 20 uL to all wells to reach 6 nM final concentration in the assay. […] Stock receptor solution was diluted in assay buffer to obtain 1.5 ug/mL in Assay Buffer. 20 uL was added to all wells. For No Receptor samples, 20 uL Assay Buffer was substituted for receptor solution. […] Following addition to the wells, the plates were incubated 3 h at 25° C. Using a Packard Filtermate Harvester, the filter plate were washed 4 times following transfer of the incubated samples. Plates were dry-filtered completely (2 h at 50° C. or overnight at room temperature). 50 uL Microscint 0 was added to all wells and read on Topcount protocol Inverted. […] For NSB wells, 1 uM 25-hydroxycholesterol was also present.
CC(C)CN(c1ccc(F)cc1F)S(=O)(=O)c1ccc(OC2CCN(S(C)(=O)=O)CC2)cc1 [Compound 50, N-(2,4-Difluoro-phenyl)-N-isobutyl-4-(1-methanesulfonyl-piperidin-4-yloxy)-benzenesulfonamide] showed a pIC50 of 8.05.
CC(C)CN(c1ccc(F)cc1)S(=O)(=O)c1ccc(C(=O)N2CCN(S(C)(=O)=O)CC2)cc1 [Compound 53, N-(4-Fluoro-phenyl)-N-isobutyl-4-(4-methanesulfonyl-piperazine-1-carbonyl)-benzenesulfonamide] showed a pIC50 of 6.52.
Compound CC(=O)N1CCN(c2ccc(S(=O)(=O)N(CC(F)F)c3cccc(Cl)c3)cc2)CC1 [Compound 38, 4-(4-Acetyl-piperazin-1-yl)-N-(3-chloro-phenyl)-N-(2,2-difluoro-ethyl)-benzenesulfonamide] has a pIC50 of 5.85.
CC(=O)N1CCN(c2ccc(S(=O)(=O)N(CC(C)C)c3ccccc3Cl)cc2)CC1 [Compound 21, 4-(4-Acetyl-piperazin-1-yl)-N-(2-chloro-phenyl)-N-isobutyl-benzenesulfonamide] gave a pIC50 of 7.00.
Work on CC(C)CN(c1cc(F)ccc1F)S(=O)(=O)c1ccc(OC2CCN(S(C)(=O)=O)CC2)cc1 [Compound 51, N-(2,5-Difluoro-phenyl)-N-isobutyl-4-(1-methanesulfonyl-piperidin-4-yloxy)-benzenesulfonamide] yielded a pIC50 of 8.10.
For CC(C)CN(c1cccc(Cl)c1)S(=O)(=O)c1ccc(N2CCN(S(C)(=O)=O)CC2)cc1 [Compound 18, N-(3-Chloro-phenyl)-N-isobutyl-4-(4-methanesulfonyl-piperazin-1-yl)-benzenesulfonamide], the pIC50 was 6.90.
In the case of CC(C)CN(c1ccccc1Cl)S(=O)(=O)c1ccc(N2CCN(S(=O)(=O)N(C)C)CC2)cc1 [Compound 20, 4-{4-[(2-Chloro-phenyl)-isobutyl-sulfamoyl]-phenyl}-piperazine-1-sulfonic acid dimethylamide], the pIC50 was 7.09.
CN(C)S(=O)(=O)N1CCN(c2ccc(S(=O)(=O)N(Cc3ccccc3C(F)(F)F)CC(F)F)cc2)CC1 [Compound 85, 4-{4-[(2,2-Difluoro-ethyl)-(2-trifluoromethyl-benzyl)-sulfamoyl]-phenyl}-piperazine-1-sulfonic acid dimethylamide] showed a pIC50 of 6.94.
Work on CC(C)CN(c1ccc(F)cc1)S(=O)(=O)c1ccc(OC2CCN(S(C)(=O)=O)CC2)cc1 [Compound 3, N-(4-Fluoro-phenyl)-N-isobutyl-4-(1-methanesulfonyl-piperidin-4-yloxy)-benzenesulfonamide] yielded a pIC50 of 7.80.
CC(C)CN(c1ccccc1C(F)(F)F)S(=O)(=O)c1ccc(NC(=O)C2CCN(S(C)(=O)=O)CC2)cc1 [Compound 11, 1-Methanesulfonyl-piperidine-4-carboxylic acid {4-[isobutyl-(2-trifluoromethyl-phenyl)-sulfamoyl]-phenyl}-amide] showed a pIC50 of 7.89.
CC(C)CN(Cc1ccccc1C(F)(F)F)S(=O)(=O)c1ccc(N2CCN(S(C)(=O)=O)CC2)c(F)c1 [Compound 75, 3-Fluoro-N-isobutyl-4-(4-methanesulfonyl-piperazin-1-yl)-N-(2-trifluoromethyl-benzyl)-benzenesulfonamide] gave a pIC50 of 8.10.
Compound COc1ccc(CN(CC(C)C)S(=O)(=O)c2ccc(N3CCN(S(C)(=O)=O)CC3)cc2)cc1 [Compound 66, N-Isobutyl-4-(4-methanesulfonyl-piperazin-1-yl)-N-(4-methoxy-benzyl)-benzenesulfonamide] has a pIC50 of 7.10.
CN(C)S(=O)(=O)N1CCN(c2ccc(S(=O)(=O)N(Cc3ccccc3C(F)(F)F)CC(F)(F)F)cc2)CC1 [Compound 79, 4-{4-[(2,2,2-Trifluoro-ethyl)-(2-trifluoromethyl-benzyl)-sulfamoyl]-phenyl}-piperazine-1-sulfonic acid dimethylamide] showed a pIC50 of 7.26.
For CC(C)CN(c1c(F)cccc1F)S(=O)(=O)c1ccc(OC2CCN(S(C)(=O)=O)CC2)cc1 [Compound 52, N-(2,6-Difluoro-phenyl)-N-isobutyl-4-(1-methanesulfonyl-piperidin-4-yloxy)-benzenesulfonamide], the pIC50 was 7.96.
Compound CC(C)CN(c1cccc(Cl)c1)S(=O)(=O)c1ccc(N[C@@H]2CCCN(S(C)(=O)=O)C2)cc1 [Compound 44, N-(3-Chloro-phenyl)-N-isobutyl-4-((R)-1-methanesulfonyl-piperidin-3-ylamino)-benzenesulfonamide] has a pIC50 of 6.93.
CC(=O)N1CCN(c2ccc(S(=O)(=O)N(CC(C)C)c3ccccc3C(F)(F)F)cc2)CC1 [Compound 41, 4-(4-Acetyl-piperazin-1-yl)-N-isobutyl-N-(2-trifluoromethyl-phenyl)-benzenesulfonamide] was tested, and the pIC50 was 7.55.
CC(C)CN(c1cccc(Cl)c1)S(=O)(=O)c1cccc(N2CCN(S(C)(=O)=O)CC2)c1 [Compound 26, N-(3-Chloro-phenyl)-N-isobutyl-3-(4-methanesulfonyl-piperazin-1-yl)-benzenesulfonamide] gave a pIC50 of 6.38.
Compound CC(C)CN(Cc1ccccc1C(F)(F)F)S(=O)(=O)c1ccc(N2CCN(S(=O)(=O)N(C)C)CC2)cc1 [Compound 73, 4-{4-[Isobutyl-(2-trifluoromethyl-benzyl)-sulfamoyl]-phenyl}-piperazine-1-sulfonic acid dimethylamide] has a pIC50 of 7.64.
In the case of CC(C)CN(Cc1ccc(OC(F)(F)F)cc1)S(=O)(=O)c1ccc(NC2CCN(S(C)(=O)=O)CC2)cc1 [Compound 90, N-Isobutyl-4-(1-methanesulfonyl-piperidin-4-ylamino)-N-(4-trifluoromethoxy-benzyl)-benzenesulfonamide], the pIC50 was 7.96.
For CC(=O)N1CCN(c2ccc(S(=O)(=O)N(Cc3ccccc3C(F)(F)F)C3(C)CCC3)cc2)CC1 [Compound 86, 4-(4-Acetyl-piperazin-1-yl)-N-(1-methyl-cyclobutyl)-N-(2-trifluoromethyl-benzyl)-benzenesulfonamide], the pIC50 was 7.15.
Compound CC(C)CN(c1cccc(Cl)c1)S(=O)(=O)c1ccc(NC2CCN(S(C)(=O)=O)CC2)cc1 [Compound 32, N-(3-Chloro-phenyl)-N-isobutyl-4-(1-methanesulfonyl-piperidin-4-ylamino)-benzenesulfonamide] has a pIC50 of 8.15.
Compound CC(C)CN(c1cccc(Cl)c1)S(=O)(=O)c1ccc(N2CCC(O)CC2)cc1 [Compound 15, N-(3-Chloro-phenyl)-4-(4-hydroxy-piperidin-1-yl)-N-isobutyl-benzenesulfonamide] has a pIC50 of 6.11.
CC(C)CN(c1ccccc1Cl)S(=O)(=O)c1ccc(N2CCC(O)CC2)cc1 [Compound 16, N-(2-Chloro-phenyl)-4-(4-hydroxy-piperidin-1-yl)-N-isobutyl-benzenesulfonamide] gave a pIC50 of 5.89.
CS(=O)(=O)N1CCC(Oc2ccc(S(=O)(=O)N(c3cccc(F)c3)C3CCC3)cc2)CC1 [Compound 4, N-Cyclobutyl-N-(3-fluoro-phenyl)-4-(1-methanesulfonyl-piperidin-4-yloxy)-benzenesulfonamide] gave a pIC50 of 7.54.
CC(C)CN(c1cccc(Cl)c1)S(=O)(=O)c1ccc(N[C@H]2CCCN(S(C)(=O)=O)C2)cc1 [Compound 45, N-(3-Chloro-phenyl)-N-isobutyl-4-((S)-1-methanesulfonyl-piperidin-3-ylamino)-benzenesulfonamide] gave a pIC50 of 6.57.
CC(C)CN(Cc1ccc(OC(F)(F)F)cc1)S(=O)(=O)c1ccc(N2CCN(S(C)(=O)=O)CC2)cc1 [Compound 64, N-Isobutyl-4-(4-methanesulfonyl-piperazin-1-yl)-N-(4-trifluoromethoxy-benzyl)-benzenesulfonamide] showed a pIC50 of 6.99.
CC(C)CN(c1cccc(Cl)c1)S(=O)(=O)c1ccc(O[C@H]2CCCN(S(C)(=O)=O)C2)cc1 [Compound 43, N-(3-Chloro-phenyl)-N-isobutyl-4-((S)-1-methanesulfonyl-piperidin-3-yloxy)-benzenesulfonamide] showed a pIC50 of 6.55.
CC(C)CN(c1cccc(Cl)c1)S(=O)(=O)c1cccc(NC2CCN(S(C)(=O)=O)CC2)c1 [Compound 40, N-(3-Chloro-phenyl)-N-isobutyl-3-(1-methanesulfonyl-piperidin-4-ylamino)-benzenesulfonamide] showed a pIC50 of 6.32.
With CC(C)CN(c1cccc(Cl)c1)S(=O)(=O)c1ccc(N2CCN(S(C)(=O)=O)CC2)cc1F [Compound 27, N-(3-Chloro-phenyl)-2-fluoro-N-isobutyl-4-(4-methanesulfonyl-piperazin-1-yl)-benzenesulfonamide] the pIC50 was 7.48.
